{"source": "patent US5089497A", "about": "“Substituted piperazines as central nervous system agents” (Warner-Lambert Company, priority 1990, dated 1992)", "key": {"[1]": {"tested_on": "Locomotor Activity in Mice", "assay": "Inhibition of locomotor activity in mice", "format": "in vivo", "settings": "Mus musculus, IP", "text": "The above test methods are incorporated herein by reference."}, "[2]": {"molecular_target": "T1, [^3 H]Spiroperidol Binding (Homo sapiens, UniProt P14416)", "T1 construct": "from tissue; host or cells: brain (striatum) membranes", "T1 sequence (P14416 whole entry)": "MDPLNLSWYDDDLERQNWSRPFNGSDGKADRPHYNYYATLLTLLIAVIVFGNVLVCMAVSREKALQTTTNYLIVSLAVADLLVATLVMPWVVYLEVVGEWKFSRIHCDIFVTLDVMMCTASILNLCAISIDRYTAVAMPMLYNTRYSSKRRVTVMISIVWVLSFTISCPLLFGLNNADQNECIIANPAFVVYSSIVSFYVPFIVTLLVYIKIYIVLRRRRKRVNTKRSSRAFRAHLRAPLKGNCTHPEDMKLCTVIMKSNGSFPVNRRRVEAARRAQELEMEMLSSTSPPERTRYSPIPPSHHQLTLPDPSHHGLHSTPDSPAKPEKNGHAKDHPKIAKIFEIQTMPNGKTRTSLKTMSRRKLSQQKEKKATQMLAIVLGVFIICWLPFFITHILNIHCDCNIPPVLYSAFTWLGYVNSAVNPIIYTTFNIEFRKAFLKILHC", "assay": "Inhibition of [^3 H]spiroperidol binding in a receptor assay", "experimental": "(§1) The compounds of Formula I are valuable dopaminergic agents. […] Thus, the compounds of Formula I were tested for their ability to inhibit locomotor activity in mice according to the assay described by J. R. McLean, et al, Pharmacology, Biochemistry and Behavior, Volume 8, pages 97-99 (1978); for their ability to inhibit [^3 H]spiroperidol binding in a receptor assay described by D. Grigoriadis and P. Seeman, Journal of Neurochemistry, Volume 44, pages 1925-1935 (1985); and for their ability to inhibit dopamine synthesis in rats according to the protocol described by J. R. Walters and R. H. Roth, Naunyn-Schmiedeberg's Archives of Pharmacology, Volume 296, pages 5-14 (1976). The above test methods are incorporated herein by reference. The data in the table show the dopaminergic activity of representative compounds of Formula I."}, "Brain Dopamine Synthesis": {"tested_on": "Brain Dopamine Synthesis", "assay": "Reversal of brain dopamine synthesis in rats (inhibition of dopamine synthesis)", "format": "in vivo", "settings": "at 10 mg/kg, IP", "experimental": "as §1"}}}
{"molecule": "c1ccc(N2CCN(CCCc3cccnc3)CC2)nc1", "note": "[Example 1, 1-(2-Pyridinyl)-4-[3-(3-pyridinyl)propyl]piperazine]", "values": [{"measurement": "ED50", "setting": "[1]", "result": 3.1, "unit": "mg/kg"}]}
{"molecule": "O=C(CCCN1CCN(c2ccccn2)CC1)c1cccnc1", "note": "[Example 2, 1-(3-Pyridinyl)-4-[4-(2-pyridinyl)-1-piperazinyl]-1-butanone]", "values": [{"measurement": "ED50", "setting": "[1]", "result": 6.3, "unit": "mg/kg"}, {"measurement": "IC50", "setting": "[2]", "result": 2870, "unit": "nM"}, {"measurement": "% Reversal of Brain Dopamine Synthesis in Rats", "setting": "Brain Dopamine Synthesis", "result": 43, "unit": "%"}]}
{"molecule": "O=C(CCCN1CCN(c2ccccn2)CC1)c1ccncc1", "note": "[Example 4, 1-(4-Pyridinyl)-4-[4-(2-pyridinyl)-1-piperazinyl]-1-butanone]", "values": [{"measurement": "ED50", "setting": "[1]", "result": 7.6, "unit": "mg/kg"}, {"measurement": "IC50", "setting": "[2]", "result": 2130, "unit": "nM"}, {"measurement": "% Reversal of Brain Dopamine Synthesis in Rats", "setting": "Brain Dopamine Synthesis", "result": 35, "unit": "%"}]}
{"molecule": "O=C(CCCN1CCN(c2ccccn2)CC1)c1cnc2ccccc2c1", "note": "[Example 6, 1-(3-Quinolinyl)-4-[4-(2-pyridinyl)-1-(piperazinyl)]-1-butanone]", "values": [{"measurement": "ED50", "setting": "[1]", "result": 2.8, "unit": "mg/kg"}, {"measurement": "IC50", "setting": "[2]", "result": 486, "unit": "nM"}]}
{"molecule": "O=C(CCCN1CCN(c2ccccn2)CC1)c1ccnc2ccccc12", "note": "[Example 7, 1-(4-Quinolinyl)-4-[4-(2-pyridinyl)-1-piperazinyl]-1-butanone]", "values": [{"measurement": "ED50", "setting": "[1]", "result": 13, "unit": "mg/kg"}]}
{"molecule": "c1ccc(N2CCN(CCCCc3cccnc3)CC2)nc1", "note": "[Example 8, 1-(2-Pyridinyl)-4-[4-(3-pyridinyl)butyl]piperazine]", "values": [{"measurement": "ED50", "setting": "[1]", "result": 2.7, "unit": "mg/kg"}, {"measurement": "% Reversal of Brain Dopamine Synthesis in Rats", "setting": "Brain Dopamine Synthesis", "result": 67, "unit": "%"}]}
{"molecule": "c1ccc(N2CCN(CCCCc3ccncc3)CC2)nc1", "note": "[Example 9]", "values": [{"measurement": "ED50", "setting": "[1]", "result": 4, "unit": "mg/kg"}, {"measurement": "IC50", "setting": "[2]", "result": 835, "unit": "nM"}, {"measurement": "% Reversal of Brain Dopamine Synthesis in Rats", "setting": "Brain Dopamine Synthesis", "result": 79, "unit": "%"}]}
{"molecule": "c1cnc(N2CCN(CCCCc3ccncc3)CC2)nc1", "note": "[Example 10, 2-[4-[4-(4-Pyridinyl)butyl]-1-piperazinyl]pyrimidine]", "values": [{"measurement": "ED50", "setting": "[1]", "result": 10.1, "unit": "mg/kg"}, {"measurement": "IC50", "setting": "[2]", "result": 4180, "unit": "nM"}, {"measurement": "% Reversal of Brain Dopamine Synthesis in Rats", "setting": "Brain Dopamine Synthesis", "result": 35, "unit": "%"}]}
{"molecule": "c1ccc(N2CCN(CCCCc3cnc4ccccc4c3)CC2)nc1", "note": "[Example 11]", "values": [{"measurement": "ED50", "setting": "[1]", "result": 2.2, "unit": "mg/kg"}, {"measurement": "IC50", "setting": "[2]", "result": 155, "unit": "nM"}, {"measurement": "% Reversal of Brain Dopamine Synthesis in Rats", "setting": "Brain Dopamine Synthesis", "result": 100, "unit": "%"}]}
{"molecule": "c1cnc(N2CCN(CCCCc3cnc4ccccc4c3)CC2)nc1", "note": "[Example 12, 3-[4-[4-(2-Pyrimidinyl)-1-piperazinyl]butyl]quinoline]", "values": [{"measurement": "ED50", "setting": "[1]", "result": 1.2, "unit": "mg/kg"}]}
{"molecule": "c1ccc(N2CCN(CCCCc3ccnc4ccccc34)CC2)nc1", "note": "[Example 13, 4-[4-[4-(2-Pyridinyl)-1-piperazinyl]butyl]quinoline]", "values": [{"measurement": "ED50", "setting": "[1]", "result": 3.2, "unit": "mg/kg"}, {"measurement": "IC50", "setting": "[2]", "result": 279, "unit": "nM"}]}
